In data set [1] the test system is brain metastases. Nature of the data set: Treatment of two human patients suffering from brain metastases with ABDNAZ in combination with whole brain radiation therapy. It counts as in vivo. On the procedure: Two human patients suffering from brain metastases were treated according to the protocol described in Part I below using ABDNAZ in combination with whole brain radiation therapy.
(§1) ABDNAZ was administered intravenously in a formulation containing ABDNAZ, polyethylene glycol having a number-average molecular weight of 400 g/mol (PEG-400), water for injection, and NN-dimethylacetamide. A single dosage of ABDNAZ was 5 mg/m^2. During radiation therapy, (i) subjects were treated in the supine position, (ii) adequate immobilization and reproducibility of position was ensured using thermoplastic mask, (iii) the target volume included the whole brain, per the treating radiation oncologist, (iv) the lens of the eye was excluded from the beam using shielding or by beam collimation, (v) the dose of radiation is specified at central axis at mid-plane, (vi) whole brain radiotherapy was delivered with a daily fraction size of 3.0 Gy per fraction given 5 days a week for a total dose of 30 Gy, and (vii) radiation therapy was delivered using photon beam energies of 6 MV and an opposed lateral technique, where all fields are treated during each treatment session.

Another data set has as its system SCCVII tumor. Description: Impact of time between administration of ABDNAZ and radiation therapy on tumor growth delay. In kind it is in vivo, mice. The following applies: ABDNAZ 15 mg/kg IP single dose at -24 h, -2 h, concurrent, +2 h or +24 h; single local 7 Gy; FIG. 1. On the procedure: The impact of the time interval between administration of ABDNAZ and radiation therapy on tumor growth delay was evaluated in mice having a SCCVII tumor. Experimental procedures and results are described below.
Mice having a SCCVII tumor were treated with radiation therapy and ABDNAZ, where the length of time between administration of radiation therapy and ABDNAZ was varied. Radiation therapy was administered as a single local dose of 7 Gy of radiation. ABDNAZ was dosed in 5 groups of mice at 15 mg/kg IP as a single dose at one of the following time points: 24 hours prior to radiation therapy, 2 hours prior to radiation therapy, concurrent with radiation therapy, 2 hours after radiation therapy, or 24 hours after radiation therapy.

For data set [2], the system named is brain metastases. Nature of the data set: Treatment of thirteen additional human patients suffering from brain metastases with ABDNAZ in combination with whole brain radiation therapy. In kind it is in vivo. The following applies: ABDNAZ 1.25 to 8.4 mg/m^2 IV + WBRT 30 Gy. On the procedure:
Thirteen human patients suffering from brain metastases were treated according to the protocol described in Part I below using ABDNAZ in combination with whole brain radiation therapy.
as §1, with “intravenously at a dosage” for “intravenously”, “the range” for “a formulation containing ABDNAZ, polyethylene glycol having a number-average molecular weight”, “1.25 mg/m^2 to 8.4” for “400 g/mol (PEG-400), water for injection, and NN-dimethylacetamide. A single dosage of ABDNAZ was 5”

Setting [3] is: first patient, four weeks after completion of ABDNAZ + WBRT.

Consider `O=C(CBr)N1CC([N+](=O)[O-])([N+](=O)[O-])C1` [ABDNAZ], for which, in the data set with brain metastases [1] (first patient (melanoma brain metastases), 24 hours after first dose of ABDNAZ 5 mg/m^2 IV), the “k^trans by dynamic contrast-enhanced brain MRI” value is recorded as “decrease in k^trans in 4 of 5 lesions”. In addition, the “size of new lesion discovered” value in the data set with brain metastases [1] (first patient, 4 months after completion of ABDNAZ + WBRT, possibly seeding from systemic disease) came to 5 mm. In the data set on brain metastases [1] (first patient, ABDNAZ 5 mg/m^2 IV + WBRT 30 Gy), the tolerability entry was “well-tolerated with mild, transient infusion site pain, and without any signs of systemic or neurologic toxicity”. Besides, the visual symptoms result is on record as “improved visual symptoms with near resolution of visual field-deficit” with brain metastases [1] (first patient, by the end of treatment with ABDNAZ + WBRT) and “began to improve” in the data set with brain metastases [1] (first patient, within 48 hours of receiving the first dose of radiation therapy, ABDNAZ 5 mg/m^2 IV + WBRT). Also, the “edema associated with lesions” value in the data set with brain metastases [1] (first patient, four months after completion of ABDNAZ + WBRT) was “decrease in associated edema of all lesions”. The “physical function, Barthel ADL index” value in the data set on brain metastases [1] (setting [3]) was “unchanged from baseline”; in the data set with brain metastases [1] (second patient, one month after end of ABDNAZ + WBRT), “unchanged from baseline”. For the same compound, the “size of brain lesions by contrasted brain MRI” value in the data set on brain metastases [1] (setting [3]) was “decrease in the size of the largest right and left occipital masses”. Further, in the data set with brain metastases [1] (second patient, 3 months after end of ABDNAZ + WBRT), the “number of sub-centimeter metastases with complete disappearance” value was 3. In addition, in the data set with brain metastases [1] (second patient, at least 18 brain metastases at baseline, ABDNAZ + WBRT), the “lesion response on serial re-imaging” value is listed as “response in all 18 visualized lesions”. The infusion site pain result in the data set with brain metastases [1] (second patient, during treatment) was “no significant infusion site pain”. Moreover, the “k^trans by DCE-MRI” value with brain metastases [1] (second patient, largest evaluable lesion, 24 hours after first administration of ABDNAZ) is “slight reduction in k^trans”. Further, the “tumor growth delay versus time interval between ABDNAZ and radiation therapy” value in the data set with SCCVII tumor is on record as “Maximum tumor growth delay occurred when ABDNAZ was administered minutes before or concomitant with radiation therapy”. Moreover, the adverse events entry in the data set on brain metastases [2] is “No adverse events were observed”. The “patients with decrease of at least 30% in sum of longest diameters of target lesions and absolute decrease of at least 5 mm in at least one target lesion” value with brain metastases [2] is “Approximately 50%”.

The values are drawn from patent US11160784B1, “Treatment of brain metastases using organonitro compound combination therapy” (EpicentRx, Inc., priority 2015, dated 2021).
